Results from the NIST ThermoML archive (doi:10.1021/je5004719).

Test: xn = mol fraction of the nth substance listed
Conditions: 101 kPa, Liquid; for speed of sound: Sing-around technique in a fixed-path interferometer; for mass density: Vibrating tube method

Cc1ccccc1C [1,2-dimethylbenzene] + C1CCOCC1
Conditions | mass density, 298.15 K [kg/m3] | mass density, 303.15 K [kg/m3] | speed of sound, 298.15 K [m/s] | speed of sound, 303.15 K [m/s]
x2 = 0.0908 | 876.43 | 872.06 | 1345.3 | 1323.7
x2 = 0.1432 | 876.68 | 872.25 | 1343.1 | 1321
x2 = 0.1897 | 876.87 | 872.4 | 1340.4 | 1317.9
x2 = 0.2318 | 877.04 | 872.53 | 1337.4 | 1314.7
x2 = 0.2953 | 877.26 | 872.71 | 1332.1 | 1309.2
x2 = 0.331 | 877.39 | 872.81 | 1328.8 | 1305.9
x2 = 0.3872 | 877.57 | 872.95 | 1323.2 | 1300.4
x2 = 0.4287 | 877.7 | 873.05 | 1319 | 1296.2
x2 = 0.4792 | 877.86 | 873.17 | 1313.7 | 1291
x2 = 0.5187 | 877.99 | 873.26 | 1309.6 | 1286.9
x2 = 0.5725 | 878.16 | 873.38 | 1304.1 | 1281.4
x2 = 0.6182 | 878.31 | 873.48 | 1299.5 | 1276.8
x2 = 0.6682 | 878.47 | 873.58 | 1294.6 | 1272
x2 = 0.7187 | 878.62 | 873.67 | 1290 | 1267.3
x2 = 0.7729 | 878.78 | 873.77 | 1285.3 | 1262.5
x2 = 0.8367 | 878.94 | 873.86 | 1280.2 | 1257.3
x2 = 0.8952 | 879.05 | 873.93 | 1276.1 | 1253.1
x2 = 0.9274 | 879.1 | 873.96 | 1274 | 1251

Cc1ccccc1Cl [2-chlorotoluene] + Cc1ccccc1
Conditions | mass density, 298.15 K [kg/m3] | mass density, 303.15 K [kg/m3] | mass density, 308.15 K [kg/m3] | speed of sound, 298.15 K [m/s] | speed of sound, 303.15 K [m/s] | speed of sound, 308.15 K [m/s]
x1 = 0.0935 | 884.2 | 879.51 | 874.8 | 1302 | 1281.3 | 1260.6
x1 = 0.1346 | 893.74 | 889.04 | 884.33 | 1301.2 | 1280.6 | 1260.2
x1 = 0.1681 | 901.47 | 896.76 | 892.04 | 1300.5 | 1280.2 | 1259.9
x1 = 0.2393 | 917.7 | 912.99 | 908.26 | 1299.5 | 1279.4 | 1259.3
x1 = 0.2782 | 926.47 | 921.75 | 917.02 | 1299 | 1279 | 1259
x1 = 0.3342 | 938.97 | 934.25 | 929.51 | 1298.5 | 1278.7 | 1258.8
x1 = 0.3871 | 950.65 | 945.92 | 941.17 | 1298.1 | 1278.5 | 1258.7
x1 = 0.4375 | 961.66 | 956.92 | 952.17 | 1297.9 | 1278.3 | 1258.7
x1 = 0.4872 | 972.41 | 967.66 | 962.89 | 1297.7 | 1278.3 | 1258.8
x1 = 0.5312 | 981.84 | 977.07 | 972.3 | 1297.6 | 1278.3 | 1259
x1 = 0.5912 | 994.55 | 989.78 | 984.99 | 1297.4 | 1278.4 | 1259.3
x1 = 0.6218 | 1001 | 996.2 | 991.4 | 1297.4 | 1278.5 | 1259.5
x1 = 0.6753 | 1012.1 | 1007.3 | 1002.5 | 1297.4 | 1278.7 | 1260
x1 = 0.7231 | 1022 | 1017.2 | 1012.3 | 1297.4 | 1278.9 | 1260.4
x1 = 0.7854 | 1034.7 | 1029.9 | 1025 | 1297.6 | 1279.2 | 1261
x1 = 0.8351 | 1044.7 | 1039.9 | 1035 | 1297.7 | 1279.5 | 1261.5
x1 = 0.8824 | 1054.2 | 1049.3 | 1044.5 | 1297.9 | 1279.8 | 1262
x1 = 0.9231 | 1062.3 | 1057.4 | 1052.5 | 1298.1 | 1280.1 | 1262.3

Cc1ccccc1Cl [2-chlorotoluene] + Cc1ccccc1C
Conditions | mass density, 298.15 K [kg/m3] | mass density, 303.15 K [kg/m3] | mass density, 308.15 K [kg/m3] | speed of sound, 298.15 K [m/s] | speed of sound, 303.15 K [m/s] | speed of sound, 308.15 K [m/s]
x1 = 0.0872 | 893.06 | 888.78 | 884.5 | 1341.6 | 1321.9 | 1302.1
x1 = 0.1276 | 901.04 | 896.73 | 892.42 | 1339.4 | 1319.8 | 1300.2
x1 = 0.1754 | 910.51 | 906.16 | 901.82 | 1337 | 1317.4 | 1298
x1 = 0.2243 | 920.22 | 915.84 | 911.46 | 1334.4 | 1315 | 1295.6
x1 = 0.2765 | 930.61 | 926.19 | 921.78 | 1331.8 | 1312.4 | 1293.1
x1 = 0.3241 | 940.11 | 935.66 | 931.22 | 1329.4 | 1310.1 | 1290.8
x1 = 0.3762 | 950.54 | 946.05 | 941.57 | 1326.8 | 1307.6 | 1288.4
x1 = 0.4216 | 959.64 | 955.13 | 950.62 | 1324.6 | 1305.4 | 1286.3
x1 = 0.4932 | 974.04 | 969.48 | 964.92 | 1321.2 | 1302.1 | 1283.1
x1 = 0.5243 | 980.31 | 975.73 | 971.15 | 1319.7 | 1300.7 | 1281.8
x1 = 0.5721 | 989.96 | 985.35 | 980.74 | 1317.5 | 1298.6 | 1279.8
x1 = 0.6158 | 998.81 | 994.17 | 989.52 | 1315.5 | 1296.7 | 1278
x1 = 0.6761 | 1011 | 1006.4 | 1001.7 | 1312.7 | 1294.1 | 1275.6
x1 = 0.7245 | 1020.9 | 1016.2 | 1011.4 | 1310.6 | 1292.1 | 1273.7
x1 = 0.7865 | 1033.5 | 1028.8 | 1024 | 1307.8 | 1289.6 | 1271.3
x1 = 0.8254 | 1041.5 | 1036.7 | 1031.9 | 1306.1 | 1288 | 1269.8
x1 = 0.8795 | 1052.5 | 1047.7 | 1042.9 | 1303.8 | 1285.8 | 1267.7
x1 = 0.9192 | 1060.7 | 1055.9 | 1051 | 1302.1 | 1284.1 | 1266.1

C1CCOCC1 [tetrahydropyran] + Cc1ccccc1
Conditions | mass density, 298.15 K [kg/m3] | mass density, 303.15 K [kg/m3] | speed of sound, 298.15 K [m/s] | speed of sound, 303.15 K [m/s]
x1 = 0.0834 | 863.93 | 859.19 | 1303.2 | 1281.1
x1 = 0.1245 | 864.77 | 859.99 | 1302.3 | 1280
x1 = 0.1765 | 865.79 | 860.99 | 1301.2 | 1278.7
x1 = 0.2387 | 866.99 | 862.15 | 1299.7 | 1277.1
x1 = 0.3017 | 868.16 | 863.3 | 1298.1 | 1275.3
x1 = 0.3541 | 869.11 | 864.23 | 1296.6 | 1273.8
x1 = 0.4098 | 870.1 | 865.2 | 1295 | 1272.2
x1 = 0.4467 | 870.74 | 865.83 | 1293.9 | 1271
x1 = 0.4915 | 871.51 | 866.59 | 1292.5 | 1269.5
x1 = 0.5487 | 872.47 | 867.53 | 1290.6 | 1267.5
x1 = 0.6008 | 873.33 | 868.36 | 1288.8 | 1265.6
x1 = 0.6472 | 874.08 | 869.09 | 1287.1 | 1263.7
x1 = 0.6954 | 874.84 | 869.83 | 1285.2 | 1261.8
x1 = 0.7321 | 875.41 | 870.38 | 1283.7 | 1260.2
x1 = 0.7832 | 876.18 | 871.13 | 1281.5 | 1257.9
x1 = 0.8241 | 876.78 | 871.71 | 1279.6 | 1255.9
x1 = 0.8937 | 877.76 | 872.65 | 1276.1 | 1252.5
x1 = 0.9205 | 878.12 | 873 | 1274.6 | 1251.1

C1CCOCC1 [tetrahydropyran] + c1ccccc1
Conditions | mass density, 298.15 K [kg/m3] | mass density, 303.15 K [kg/m3] | speed of sound, 298.15 K [m/s] | speed of sound, 303.15 K [m/s]
x1 = 0.0789 | 874.6 | 869.25 | 1298.9 | 1274
x1 = 0.1324 | 875.21 | 869.87 | 1298.2 | 1272.5
x1 = 0.1784 | 875.68 | 870.35 | 1297.5 | 1271.2
x1 = 0.2239 | 876.1 | 870.78 | 1296.6 | 1269.8
x1 = 0.2876 | 876.63 | 871.32 | 1295.2 | 1267.9
x1 = 0.3276 | 876.92 | 871.63 | 1294.2 | 1266.7
x1 = 0.3769 | 877.26 | 871.97 | 1292.9 | 1265.2
x1 = 0.4285 | 877.58 | 872.3 | 1291.4 | 1263.6
x1 = 0.4794 | 877.87 | 872.59 | 1289.8 | 1262
x1 = 0.5598 | 878.27 | 872.99 | 1287.2 | 1259.6
x1 = 0.6024 | 878.46 | 873.17 | 1285.8 | 1258.3
x1 = 0.6534 | 878.66 | 873.37 | 1284 | 1256.9
x1 = 0.7006 | 878.82 | 873.53 | 1282.3 | 1255.5
x1 = 0.7432 | 878.95 | 873.65 | 1280.7 | 1254.2
x1 = 0.7943 | 879.07 | 873.77 | 1278.8 | 1252.8
x1 = 0.8213 | 879.12 | 873.83 | 1277.7 | 1252
x1 = 0.8763 | 879.18 | 873.92 | 1275.4 | 1250.4
x1 = 0.9148 | 879.2 | 873.96 | 1273.7 | 1249.3
